According to ChEMBL document CHEMBL1201862, “PubChem BioAssay data set” (2004):
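Assay format: 96-well plates, 48-hour exposure. GI50 marks 50% less growth.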 Active and inactive are the calls of the source. Cut-off read from the data, not from the text of the source: active = GI50 up to about 1.1 µM and inactive = higher.

Key:
Experiment in all cases: NCI anticancer screen, dose series, 48 h
786-0 = tested on: 786-0
A498 = tested on: A498
A549 = tested on: A549
ACHN = tested on: ACHN
CAKI-1 = tested on: CAKI-1
CCRF-CEM = tested on: CCRF-CEM
COLO 205 = tested on: COLO 205
DLD-1 = tested on: DLD-1
DMS-114 = tested on: DMS-114
DMS-273 = tested on: DMS-273
EKVX = tested on: EKVX
HCC 2998 = tested on: HCC 2998
HCT-116 = tested on: HCT-116
HCT-15 = tested on: HCT-15
HL-60 = tested on: HL-60
HOP-18 = tested on: HOP-18
HOP-62 = tested on: HOP-62
HOP-92 = tested on: HOP-92
IGROV-1 = tested on: IGROV-1
K562 = tested on: K562
KM-20L2 = tested on: KM-20L2
KM12 = tested on: KM12
LOX IMVI = tested on: LOX IMVI
LXFL 529 = tested on: LXFL 529
M14 = tested on: M14
M19-MEL = tested on: M19-MEL
MOLT-4 = tested on: MOLT-4
Malme-3M = tested on: Malme-3M
NCI-H226 = tested on: NCI-H226
NCI-H23 = tested on: NCI-H23
NCI-H460 = tested on: NCI-H460
NCI-H522 = tested on: NCI-H522
OVCAR-3 = tested on: OVCAR-3
OVCAR-4 = tested on: OVCAR-4
OVCAR-5 = tested on: OVCAR-5
OVCAR-8 = tested on: OVCAR-8
RXF 393 = tested on: RXF 393
SF-268 = tested on: SF-268
SF-295 = tested on: SF-295
SF-539 = tested on: SF-539
SK-MEL-28 = tested on: SK-MEL-28
SK-MEL-2 = tested on: SK-MEL-2
SK-MEL-5 = tested on: SK-MEL-5
SK-OV-3 = tested on: SK-OV-3
SN12C = tested on: SN12C
SNB-19 = tested on: SNB-19
SNB-75 = tested on: SNB-75
SNB-78 = tested on: SNB-78
SR = tested on: SR
SW-620 = tested on: SW-620
TK-10 = tested on: TK-10
U-251 = tested on: U-251
UACC-257 = tested on: UACC-257
UACC-62 = tested on: UACC-62
UO-31 = tested on: UO-31
XF498 = tested on: XF498
HT-29 = tested on: HT-29
RXF 631 = tested on: RXF 631
RPMI-8226 = tested on: RPMI-8226

For `Nc1nc2c(N)cc(C(F)(F)F)cc2nc1-c1ccccc1`, the GI50 (786-0) was > 100 µM (inactive), the GI50 (A498) was > 100 µM (inactive) and the GI50 (A549) was > 100 µM (inactive). For the same compound, the GI50 (ACHN) was > 100 µM (inactive), the GI50 (CAKI-1) was > 100 µM (inactive) and the GI50 (CCRF-CEM) was > 100 µM (inactive). For the same compound, the GI50 (COLO 205) was > 100 µM (inactive), the GI50 (DLD-1) was > 100 µM (inactive) and the GI50 (DMS-114) was 86.5 µM (inactive). For the same compound, the GI50 (DMS-273) was > 100 µM (inactive), the GI50 (EKVX) was 4 µM (inactive) and the GI50 (HCC 2998) was > 100 µM (inactive). The GI50 (HCT-116) was > 100 µM (inactive), the GI50 (HCT-15) was greater than 100 µM and the GI50 (HL-60) was 1.17 µM (inactive). For the same compound, the GI50 (HOP-18) was > 100 µM (inactive), the GI50 (HOP-62) was > 100 µM (inactive) and the GI50 (HOP-92) was > 100 µM (inactive). For the same compound, the GI50 (IGROV-1) was > 100 µM (inactive), the GI50 (K562) was > 100 µM (inactive) and the GI50 (KM-20L2) was > 100 µM (inactive). For the same compound, the GI50 (KM12) was > 100 µM (inactive), the GI50 (LOX IMVI) was > 100 µM (inactive) and the GI50 (LXFL 529) was 64.9 µM (inactive). The GI50 (M14) was > 100 µM (inactive), the GI50 (M19-MEL) was > 100 µM (inactive) and the GI50 (MOLT-4) was 38.4 µM (inactive). The GI50 (Malme-3M) was > 100 µM (inactive), the GI50 (NCI-H226) was > 100 µM (inactive) and the GI50 (NCI-H23) was > 100 µM (inactive). The GI50 (NCI-H460) was > 100 µM (inactive), the GI50 (NCI-H522) was 85.3 µM (inactive) and the GI50 (OVCAR-3) was > 100 µM (inactive). For the same compound, the GI50 (OVCAR-4) was > 100 µM (inactive), the GI50 (OVCAR-5) was > 100 µM (inactive) and the GI50 (OVCAR-8) was > 100 µM (inactive). For the same compound, the GI50 (RXF 393) was > 100 µM (inactive), the GI50 (SF-268) was > 100 µM (inactive) and the GI50 (SF-295) was > 100 µM (inactive). For the same compound, the GI50 (SF-539) was > 100 µM (inactive), the GI50 (SK-MEL-28) was > 100 µM (inactive) and the GI50 (SK-MEL-2) was > 100 µM (inactive). For the same compound, the GI50 (SK-MEL-5) was > 100 µM (inactive), the GI50 (SK-OV-3) was > 100 µM (inactive) and the GI50 (SN12C) was > 100 µM (inactive). For the same compound, the GI50 (SNB-19) was > 100 µM (inactive), the GI50 (SNB-75) was 27.2 µM (inactive) and the GI50 (SNB-78) was > 100 µM (inactive). The GI50 (SR) was > 100 µM (inactive), the GI50 (SW-620) was > 100 µM (inactive) and the GI50 (TK-10) was > 100 µM (inactive). For the same compound, the GI50 (U-251) was > 100 µM (inactive), the GI50 (UACC-257) was > 100 µM (inactive) and the GI50 (UACC-62) was > 100 µM (inactive). For the same compound, the GI50 (UO-31) was > 100 µM (inactive) and the GI50 (XF498) was 50.2 µM (inactive).

For `O=P(O)(O)C1CCCC(P(=O)(O)O)N1` (stereo not given), the GI50 (A498) was > 100 µM (inactive), the GI50 (A549) was > 100 µM (inactive) and the GI50 (ACHN) was > 100 µM (inactive). The GI50 (CCRF-CEM) was > 100 µM (inactive), the GI50 (DMS-114) was > 100 µM (inactive) and the GI50 (DMS-273) was > 100 µM (inactive). The GI50 (EKVX) was > 100 µM (inactive), the GI50 (HCT-116) was > 100 µM (inactive) and the GI50 (HL-60) was > 100 µM (inactive). For the same compound, the GI50 (HOP-62) was > 100 µM (inactive), the GI50 (HOP-92) was > 100 µM (inactive) and the GI50 (HT-29) was > 100 µM (inactive). For the same compound, the GI50 (IGROV-1) was > 100 µM (inactive), the GI50 (KM-20L2) was > 100 µM (inactive) and the GI50 (KM12) was > 100 µM (inactive). The GI50 (M14) was > 100 µM (inactive), the GI50 (M19-MEL) was > 100 µM (inactive) and the GI50 (MOLT-4) was > 100 µM (inactive). The GI50 (NCI-H226) was > 100 µM (inactive), the GI50 (NCI-H23) was > 100 µM (inactive) and the GI50 (NCI-H460) was > 100 µM (inactive). The GI50 (NCI-H522) was > 100 µM (inactive), the GI50 (OVCAR-5) was > 100 µM (inactive) and the GI50 (OVCAR-8) was > 100 µM (inactive). The GI50 (RXF 393) was > 100 µM (inactive), the GI50 (RXF 631) was > 100 µM (inactive) and the GI50 (SF-268) was > 100 µM (inactive). The GI50 (SF-295) was > 100 µM (inactive), the GI50 (SK-MEL-28) was > 100 µM (inactive) and the GI50 (SK-OV-3) was > 100 µM (inactive). For the same compound, the GI50 (SNB-19) was > 100 µM (inactive), the GI50 (SNB-78) was > 100 µM (inactive) and the GI50 (SR) was > 100 µM (inactive). For the same compound, the GI50 (TK-10) was > 100 µM (inactive), the GI50 (U-251) was > 100 µM (inactive) and the GI50 (UACC-257) was > 100 µM (inactive). The GI50 (UO-31) was > 100 µM (inactive).

`COC(=O)C(=O)C(C(=O)C=C(C)C)C(=O)C(=O)Nc1ccc(C)cc1C` (stereo not given) was tested, and the GI50 (786-0) was > 100 µM (inactive), the GI50 (A498) was > 100 µM (inactive) and the GI50 (A549) was > 100 µM (inactive). For the same compound, the GI50 (ACHN) was > 100 µM (inactive), the GI50 (CAKI-1) was > 100 µM (inactive) and the GI50 (CCRF-CEM) was > 100 µM (inactive). For the same compound, the GI50 (COLO 205) was > 100 µM (inactive), the GI50 (DLD-1) was > 100 µM (inactive) and the GI50 (DMS-114) was > 100 µM (inactive). For the same compound, the GI50 (DMS-273) was > 100 µM (inactive), the GI50 (EKVX) was > 100 µM (inactive) and the GI50 (HCC 2998) was > 100 µM (inactive). For the same compound, the GI50 (HCT-116) was > 100 µM (inactive), the GI50 (HCT-15) was greater than 100 µM and the GI50 (HL-60) was > 100 µM (inactive). For the same compound, the GI50 (HOP-18) was > 100 µM (inactive), the GI50 (HOP-62) was > 100 µM (inactive) and the GI50 (HT-29) was > 100 µM (inactive). The GI50 (IGROV-1) was > 100 µM (inactive), the GI50 (K562) was > 100 µM (inactive) and the GI50 (KM-20L2) was > 100 µM (inactive). The GI50 (KM12) was > 100 µM (inactive), the GI50 (LOX IMVI) was > 100 µM (inactive) and the GI50 (LXFL 529) was > 100 µM (inactive). For the same compound, the GI50 (M14) was > 100 µM (inactive), the GI50 (M19-MEL) was > 100 µM (inactive) and the GI50 (MOLT-4) was > 100 µM (inactive). For the same compound, the GI50 (Malme-3M) was > 100 µM (inactive), the GI50 (NCI-H226) was > 100 µM (inactive) and the GI50 (NCI-H23) was > 100 µM (inactive). For the same compound, the GI50 (NCI-H460) was > 100 µM (inactive), the GI50 (NCI-H522) was > 100 µM (inactive) and the GI50 (OVCAR-3) was > 100 µM (inactive). For the same compound, the GI50 (OVCAR-4) was > 100 µM (inactive), the GI50 (OVCAR-5) was > 100 µM (inactive) and the GI50 (OVCAR-8) was > 100 µM (inactive). For the same compound, the GI50 (RPMI-8226) was > 100 µM (inactive), the GI50 (RXF 393) was > 100 µM (inactive) and the GI50 (SF-268) was > 100 µM (inactive). For the same compound, the GI50 (SF-295) was > 100 µM (inactive), the GI50 (SF-539) was > 100 µM (inactive) and the GI50 (SK-MEL-28) was > 100 µM (inactive). For the same compound, the GI50 (SK-MEL-2) was > 100 µM (inactive), the GI50 (SK-MEL-5) was > 100 µM (inactive) and the GI50 (SK-OV-3) was > 100 µM (inactive). The GI50 (SN12C) was > 100 µM (inactive), the GI50 (SNB-19) was > 100 µM (inactive) and the GI50 (SNB-75) was > 100 µM (inactive). For the same compound, the GI50 (SNB-78) was > 100 µM (inactive), the GI50 (SR) was > 100 µM (inactive) and the GI50 (SW-620) was > 100 µM (inactive). For the same compound, the GI50 (TK-10) was > 100 µM (inactive), the GI50 (U-251) was > 100 µM (inactive) and the GI50 (UACC-257) was > 100 µM (inactive). For the same compound, the GI50 (UACC-62) was > 100 µM (inactive), the GI50 (UO-31) was > 100 µM (inactive) and the GI50 (XF498) was > 100 µM (inactive).
